Experimental data: patent publication US11089783B2, “2-(het)aryl-substituted fused heterocycle derivatives as pesticides” (Bayer Aktiengesellschaft, priority 2017, dated 2021)

Tests used:
Format in all cases: in vivo
Lucilia cuprina = Lucilia cuprina test; conditions: 48 h, L1 larvae, after 2 days, read-out: efficacy (kill)
Procedure: Solvent: dimethyl sulfoxide To produce a suitable active ingredient formulation, 10 mg of active ingredient are mixed with 0.5 ml of dimethyl sulfoxide, and the concentrate is diluted with water to the desired concentration. About 20 L1 larvae of the Australian sheep blowfly (Lucilia cuprina) are transferred into a test vessel containing minced horsemeat and the active ingredient formulation of the desired concentration. After 2 days, the kill in % is determined. 100% means that all the larvae have been killed; 0% means that no larvae have been killed.

Nilaparvata lugens = Nilaparvata lugens spray test (NILALU); conditions: 4 dat; for Emax at 20 g/ha / % efficacy: 20 g/ha
Procedure: (§1) [table] To produce an appropriate active ingredient formulation, 1 part by weight of active ingredient is dissolved with the specified parts by weight of solvent and made up with water containing an emulsifier concentration of 1000 ppm until the desired concentration is attained. To produce further test concentrations, the mixture is diluted with emulsifier-containing water. If addition of ammonium salts or/and penetrants is required, these are each added to the preparation solution in a concentration of 1000 ppm. Rice plants (Oryza sativa) are sprayed with an active ingredient formulation of the desired concentration and then populated with larvae of the brown planthopper (Nilaparvata lugens). After the desired time, the efficacy in % is determined. 100% means that all planthoppers have been killed; 0% means that no planthoppers have been killed.

Aphis gossypii = Aphis gossypii spray test (APHIGO), cotton plants; conditions: Aphis gossypii, 144 h, 6 dat, read-out: % efficacy
Procedure: as §1, with “Cotton” for “Rice”, “(Gossypium hirsutum) severely infested by the cotton aphid (Aphis gossypii)” for “(Oryza sativa)”, “concentration.” for “concentration and then populated with larvae of the brown planthopper (Nilaparvata lugens).”, “kill” for “efficacy”, “aphids” for “planthoppers”

Phaedon cochleariae [1] = assay: Phaedon cochleariae spray test (PHAECO), Chinese cabbage leaf discs; conditions: for pest or weed control at 100 g/ha: 7 days (7 dat), read-out: efficacy
Procedure: (§2) [table] To produce a suitable active ingredient formulation, 1 part by weight of active ingredient is dissolved with the specified parts by weight of solvent and made up to the desired concentration with water containing an emulsifier concentration of 1000 ppm. To produce further test concentrations, the formulation is diluted with emulsifier-containing water. Discs of Chinese cabbage leaves (Brassica pekinensis) are sprayed with an active ingredient formulation of the desired concentration and, after drying, populated with larvae of the mustard beetle (Phaedon cochleariae). After 7 days, the efficacy in % is determined. 100% means that all the beetle larvae have been killed; 0% means that no beetle larvae have been killed. [table] To produce an appropriate active ingredient formulation, 1 part by weight of active ingredient is dissolved with the stated parts by weight of solvent and made up with water containing an emulsifier concentration of 1000 ppm until the desired concentration is attained. For production of further test concentrations, the mixture is diluted with emulsifier-containing water. Discs of chinese cabbage leaves (Brassica pekinensis) are sprayed with an active ingredient formulation of the desired concentration and, after drying, populated with larvae of the mustard beetle (Phaedon cochleariae). After the desired time, the efficacy in % is determined. 100% means that all beetle larvae have been killed; 0% means that no beetle larvae have been killed.

Myzus persicae [2] = assay: Myzus persicae spray test (MYZUPE S), bell pepper plants; conditions: 144 h, 4 ppm, 6 dat, read-out: % efficacy
Procedure: [table] To produce an appropriate active ingredient formulation, 1 part by weight of active ingredient is dissolved with the specified parts by weight of solvent and made up with water containing an emulsifier concentration of 1000 ppm until the desired concentration is attained. To produce further test concentrations, the mixture is diluted with emulsifier-containing water. If addition of ammonium salts or/and penetrants is required, these are each added to the preparation solution in a concentration of 1000 ppm. Bell pepper plants (Capsicum annuum) severely infested by the green peach aphid (Myzus persicae) are treated by spraying with the active ingredient formulation in the desired concentration. After the desired time, the kill in % is determined. 100% means that all the animals have been killed; 0% means that no animals have been killed.

Myzus persicae [3] = assay: Myzus persicae oral test; conditions: 120 h, after 5 days, read-out: efficacy
Procedure: [table] To produce a suitable active ingredient formulation, 1 part by weight of active ingredient is dissolved with the stated parts by weight of solvent and made up to the desired concentration with water. 50 μl of the active ingredient preparation are transferred into microtitre plates and made up to a final volume of 200 μl with 150 μl of IPL41 insect medium (33%+15% sugar). Subsequently, the plates are sealed with parafilm, which a mixed population of green peach aphids (Myzus persicae) within a second microtitre plate is able to puncture and imbibe the solution. After 5 days, the efficacy in % is determined. 100% means that all the aphids have been killed; 0% means that no aphids have been killed.

Myzus persicae [4] = assay: Myzus persicae spray test (MYZUPE), Chinese cabbage leaf discs; conditions: Myzus persicae, foliar, 120 h; for pest or weed control at 20 g/ha / pest or weed control at 100 g/ha: 5 days (5 dat), read-out: efficacy
Procedure: as §2, with “pekinensis) infested by all stages of the green peach aphid (Myzus persicae)” for “pekinensis)”, “concentration.” for “concentration and, after drying, populated with larvae of the mustard beetle (Phaedon cochleariae).”, “5” for “7”, “aphids” for “beetle larvae”

Phaedon cochleariae [5] = assay: Phaedon cochleariae spray test (PHAECO S), cabbage leaves; conditions: 20 ppm, 7 dat
Procedure: as §1, with “Cabbage leaves (Brassica oleracea)” for “Rice plants (Oryza sativa)”, “and” for “and then”, “mustard beetle (Phaedon cochleariae).” for “brown planthopper (Nilaparvata lugens).”, “kill” for “efficacy”, “beetle larvae” for “planthoppers”

Nezara viridula = Nezara viridula spray test (NEZARA / NEZAVI); conditions: 4 dat; for % efficacy: 500 g/ha
Procedure: as §1, with “Barley” for “Rice”, “(Hordeum vulgare) infected with larvae of the southern green shield bug (Nezara viridula)” for “(Oryza sativa)”, “concentration.” for “concentration and then populated with larvae of the brown planthopper (Nilaparvata lugens).”, “bugs” for “planthoppers”

Meloidogyne incognita = Meloidogyne incognita test (MELGIN); conditions: 20 ppm, 14 days (14 dat)
Procedure: [table] To produce a suitable active ingredient formulation, 1 part by weight of active ingredient is mixed with the stated amount of solvent and the concentrate is diluted to the desired concentration with water. Vessels are filled with sand, active ingredient solution, an egg/larvae suspension of the southern root-knot nematode (Meloidogyne incognita) and lettuce seeds. The lettuce seeds germinate and the plants develop. The galls develop on the roots. After 14 days, the nematicidal efficacy in % is determined by the formation of galls. 100% means that no galls were found; 0% means that the number of galls on the treated plants corresponds to the untreated control. [table] To produce an appropriate active ingredient formulation, 1 part by weight of active ingredient is mixed with the specified amount of solvent and the concentrate is diluted to the desired concentration with water. Vessels are filled with sand, active ingredient solution, an egg/larvae suspension of the southern root-knot nematode (Meloidogyne incognita) and lettuce seeds. The lettuce seeds germinate and the plants develop. The root-knots develop on the roots. After the desired time, the nematicidal effect is determined from the formation of root-knots in %. 100% means that no root-knots were found; 0% means that the number of root-knots on the treated plants corresponds to that on the untreated control.

Myzus persicae [6] = assay: Myzus persicae drench test (MYZUPE D), savoy cabbage plants; conditions: soil, 240 h, 10 dat, read-out: % efficacy
Procedure: [table] To produce an appropriate active ingredient formulation, 1 part by weight of active ingredient is mixed with the specified amounts of solvent and emulsifier and the concentrate is diluted to the desired concentration with water, it being necessary to take into account the volume of soil into which drenching is effected. It should be ensured that a concentration of 40 ppm of emulsifier in the soil is not exceeded. For production of further test concentrations, the mixture is diluted with water. Savoy cabbage plants (Brassica oleracea) in soil pots, infested by all stages of the green peach aphid (Myzus persicae), are drenched with an active ingredient formulation of the desired concentration. After the desired time, the efficacy in % is determined. 100% means that all the aphids have been killed; 0% means that no aphids have been killed.

Tetranychus urticae = Tetranychus urticae spray test, OP-resistant (TETRUR); conditions: Tetranychus urticae, 144 h; TETRUR, 100 g/ha, 6 dat; read-out: % efficacy
Procedure: [table] To produce a suitable active ingredient formulation, 1 part by weight of active ingredient is dissolved with the specified parts by weight of solvent and made up to the desired concentration with water containing an emulsifier concentration of 1000 ppm. To produce further test concentrations, the formulation is diluted with emulsifier-containing water. Discs of bean leaves (Phaseolus vulgaris) infested with all stages of the greenhouse red spider mite (Tetranychus urticae) are sprayed with an active ingredient formulation of the desired concentration. After 6 days, the efficacy in % is determined. 100% means that all the spider mites have been killed; 0% means that no spider mites have been killed.

[7] = Nilaparvata lugens, 96 h, read-out: % efficacy
[8] = Phaedon cochleariae, foliar, 168 h
[9] = Phaedon cochleariae, foliar, 168 h, PHAECO, 20 g/ha, 7 dat

SMILES | pest or weed control at 100 ppm (Lucilia cuprina) | Emax at 20 g/ha (Nilaparvata lugens; [7]) | Emax at 100 g/ha (Nilaparvata lugens; [7]) | Emax at 4 ppm (Aphis gossypii) | pest or weed control at 100 g/ha (Phaedon cochleariae [1]; [8]) | percent efficacy (larval mortality) at a fixed application rate at 20 g/ha (Phaedon cochleariae [1]; [9]) | Emax at 4 ppm (Myzus persicae [2]) | pest or weed control at 0.8 ppm (Myzus persicae [3]) | pest or weed control at 20 g/ha (Myzus persicae [4]) | pest or weed control at 100 g/ha (Myzus persicae [4]) | % efficacy (Phaedon cochleariae [5]) | % efficacy (Nilaparvata lugens) | % efficacy (Phaedon cochleariae [1]; PHAECO, 0.8 g/ha, 7 dat) | % efficacy (Phaedon cochleariae [1]; PHAECO, 4 g/ha, 7 dat) | % efficacy (Nezara viridula) | efficacy (nematicidal, gall formation) (Meloidogyne incognita) | other results
CCS(=O)(=O)c1ccc(C(=O)NC2CC2)nc1-c1nc2cc(C(F)(F)C(F)(F)F)nnc2n1C [Example I-03] | 100% | 80% | 100% | 95% | 100% | 100% | 100% | 100% | 90% | 100% |  |  |  |  |  |  | 
CCS(=O)(=O)c1ccc(C(N)=O)nc1-c1nc2cc(C(F)(F)C(F)(F)F)nnc2n1C [Example I-02] | 100% |  |  |  | 100% |  |  | 100% |  | 100% | 100% | 90% | 83% | 100% | 90% | 90% | 
CNC(=O)Nc1ccc(S(C)(=O)=O)c(-c2nc3cc(C(F)(F)F)nnc3n2C)n1 [reference compound] |  |  |  |  | 33% |  |  |  |  |  |  |  |  |  |  |  | Emax at 0.8 ppm (Myzus persicae [6]; 0.8 ppm): 0%; Emax at 4 ppm (Myzus persicae [6]; 4 ppm): 0%; Emax at 20 ppm (Aphis gossypii; 20 ppm): 0%; Emax at 20 g/ha (Phaedon cochleariae [1]; Phaedon cochleariae, foliar, 168 h, PHAECO, 20 g/ha, 7 dat, read-out: % efficacy): 0%; Emax at 20 g/ha (Nezara viridula; Nezara viridula, 96 h, 20 g/ha, read-out: % efficacy): 0%
CCS(=O)(=O)c1ccc(NC(=O)N(C)C)nc1-c1nc2cc(C(F)(F)F)nnc2n1C [reference compound] |  |  |  | 15% |  |  |  |  |  |  |  |  |  |  |  |  | Emax at 20 ppm (Phaedon cochleariae [5]; Phaedon cochleariae, 168 h, read-out: % efficacy): 20%; Emax at 4 g/ha (Nilaparvata lugens; Nilaparvata lugens, 96 h, 4 g/ha, read-out: % efficacy): 0%; Emax at 4 g/ha (Myzus persicae [4]; MYZUPE, 4 g/ha, 5 dat, read-out: % efficacy): 0%; Emax at 100 g/ha (Tetranychus urticae): 0%; Emax at 4 g/ha (Nezara viridula; Nezara viridula, 96 h, 4 g/ha, read-out: % efficacy): 0%
CCS(=O)(=O)c1ccc(C(N)=O)nc1-c1nc2cc(C(F)(F)C(F)(F)F)nnc2n1C [drawing 40, reference compound] |  |  |  |  |  |  |  |  |  |  | 0% | 50% | 0% | 33% | 0% | 0% | 
CCS(=O)(=O)c1ccc(C(=O)NC2CC2)nc1-c1nc2cc(C(F)(F)F)nnc2n1C [reference compound] |  | 0% | 0% | 0% | 33% | 33% | 0% |  | 0% |  |  |  |  |  |  |  | 
